Here are results for two molecules from patent publication US12616689B2, “Regimens of tafenoquine for prevention of malaria in malaria-naive subjects” (60 Degrees Pharmaceuticals, Inc., priority 2014, dated 2026).

For data set [1] the following is noted: in vivo; cited from earlier work.
Data set [2] is described as follows: Population PK analysis (NONMEM one-compartment model) of plasma tafenoquine concentrations pooled from ten Phase I/II/III clinical studies, with bootstrap evaluation. It is filed as in vivo, human. The arrangement: key to ωCL^2, variance of inter-individual random effect on CL, final NONMEM estimate / ωV^2, variance of inter-individual random effect on V, final NONMEM estimate / ωKa^2, variance of inter-individual random effect on Ka, final NONMEM estimate / ωCL^2, Bootstrap Estimate / ωV^2, Bootstrap Estimate / ωKa^2, Bootstrap Estimate: variance of ηi, where Pi = P·exp(ηi). The protocol:
Pharmacokinetic (PK) data from several studies (Phase I/II/III) was modeled to establish a consolidated model of tafenoquine and to determine relevant covariates. More specifically, analysis was performed using data obtained from ten Phase I/II/III clinical studies of tafenoquine (U.S. Army Study Numbers: 1, 2, 3, 4, 5, 14, 15, 33, 44 and 58). Table 2 summarizes the key features of each of the studies included in the pooled dataset such as the study type and design, dose and dosing regimen, population, and sample collection schemes. A total of 866 subjects were included in the population analysis. Ninety-three percent of the subjects were male.
The tafenoquine concentrations of plasma samples across the ten studies were analyzed using a validated high-performance liquid chromatography-mass spectrometry method (HPLC-MS) or HPLC with fluorescence detection as previously described (see, Kocisko D A, Walsh D S, Eamsila C, Edstein M D. Measurement of tafenoquine (WR 238605) in human plasma, and venous and capillary blood by high-pressure liquid chromatography. Ther Drug Monit. 2000; 22:184-189; Charles B G, Miller A K, Nasveld P E, Reid M G, Harris I E, Edstein M D. Population pharmacokinetics of tafenoquine during malaria prophylaxis in healthy subjects. Antimicrob Agents Chemother. 2007; 51:2709-2715.
Population PK analyses were carried out using NONMEM version 7.1.2, PDx-Pop version 4.2 (Icon Development Solutions, Hanover, MD) and Intel Visual Fortran Compiler version 12 on a Microsoft Windows XP platform. Plasma tafenoquine concentrations, demographic information and clinical laboratory results from ten studies were used to build a pooled NONMEM input data file for the current population PK analysis. The data were prepared for analysis using SAS software version 9.1.3 (SAS Institute Inc., Cary, NC). Actual dosing and actual blood sampling times, when available, were used for the analysis. Plasma tafenoquine concentrations that were below or equal to the limit of quantification were excluded from the analysis.
Based on the PK profile of tafenoquine from previous modeling efforts (Shanks G D, Oloo A J, Aleman G M, et al. A new primaquine analogue, tafenoquine (WR 238605), for prophylaxis against Plasmodium falciparum malaria. Clin Infect Dis. 2001; 33:1968-1974; Obaldia N 3rd, Rossan R N, Cooper R D, et al. WR 238605, chloroquine, and their combinations as blood schizonticides against a chloroquine-resistant strain of Plasmodium vivax in Aotus monkeys. Am J Trop Med Hyg. 1997; 56:508-10), a one-compartment PK model with first-order absorption and elimination processes was selected to describe best the pharmacokinetics of tafenoquine. As part of the modeling process, a two-compartment PK model with first-order absorption and elimination process was also explored and discarded. The one-compartment PK model was specified in the NONMEM control file and was parameterized in terms of apparent clearance (CL/F), apparent volume of distribution (V/F) and absorption rate constant (Ka) using the PREDPP ADVAN2 with TRANS2 subroutine in NONMEM. First-order conditional estimation (FOCE) with interaction between variance of inter-individual variability and the variance of residual error was used as the estimation method. Inter-individual variability was best described by an exponential error model, as shown below: Pi=Pexp(ηi) • where: • Pi is the estimated parameter for the i^th individual. • P is the population value for the parameter. • ηi are inter-individual random effects for the i^th individual for parameter P and were assumed to be independent and symmetrically distributed with a zero mean and a variance ω^2.
Different structural models (additive, proportional, exponential and combined additive and proportional) were investigated for residual unexplained variability (RUV). RUV was best described by a proportional error model, as shown below: […]

Another data set relates to malaria. To be noted: cited from earlier work.
In data set [3] the test system is Plasmodium falciparum malaria. The note with it: regimens of 50, 100, 200 and 400 mg; cited from earlier work.
Data set [4] relates to blood stages of P. falciparum. To be noted: cited from earlier work.
The test system of a further data set is P. berghei. The note with it: cited from earlier work.
For data set [5], the system named is chloroquine sensitive and resistant P. vivax. To be noted: Aotus monkeys; cited from earlier work.
For data set [6] the following is noted: cited from earlier work.
The mark [7] stands for this setting: final PK model, coefficient of variation.

For `COc1cc(NC(C)CCCN)c2ncccc2c1` (stereo not drawn) [primaquine], the Half-life result in data set [1] is “hours”.

`COc1cc(C)c2c(Oc3cccc(C(F)(F)F)c3)c(OC)cc(NC(C)CCCN)c2n1` (stereo not drawn) [tafenoquine, -[2,6-Dimethoxy-4-methyl-5-[3-(trifluoromethyl)phenoxy]quinolin-8-yl]pentane-1,4-diamine]: in data set [2] (1000 bootstrap samples), the “COVCL,V, Bootstrap Estimate” value was 0.0250; the “θCL, Bootstrap Estimate” value is recorded as 4.15; the “θCL-AGE, Bootstrap Estimate” value is −0.200; the “θCL-WT, Bootstrap Estimate” value is recorded as 0.554. Moreover, in data set [2] (1000 bootstrap samples), the “θKA, Bootstrap Estimate” value was 0.351; the “θV, Bootstrap Estimate” value was 2482; the “θV-FOOD, Bootstrap Estimate” value was 0.810; the “θV-WT, Bootstrap Estimate” value is on record as 0.774. Besides, in data set [2] (1000 bootstrap samples), the “σ^2, Bootstrap Estimate” value is recorded as 0.0486; the “ωCL^2, Bootstrap Estimate” value is listed as 0.0536; the “ωKa^2, Bootstrap Estimate” value was 0.283; the “ωV^2, Bootstrap Estimate” value was 0.0521. Besides, in data set [2] (base model, without covariates), the “Inter-individual variability associated with CL/F before inclusion of covariates WT and age” value is on record as 26.5%; the “Inter-individual variability of V/F before inclusion of covariates WT and meal condition” value is 29.6%. The Vd/F in data set [2] (both sexes, human, plasma, oral, final PK model, WT 75 kg, fasted, read-out: θV, population apparent volume of distribution (V/F), final NONMEM estimate) was 2470 L. Also, in data set [2] (final PK model), the “COVCL,V, covariance, final NONMEM estimate” value is recorded as 0.0289; the “θV-WT, exponent of weight effect on V/F, final NONMEM estimate” value is recorded as 0.781; the “σ^2, variance of the proportional residual random effect, final NONMEM estimate” value was 0.0488; the “ωCL^2, variance of inter-individual random effect on CL, final NONMEM estimate” value is given as 0.0555. Also, in data set [2] (final PK model), the “ωKa^2, variance of inter-individual random effect on Ka, final NONMEM estimate” value is listed as 0.293 and the “ωV^2, variance of inter-individual random effect on V, final NONMEM estimate” value was 0.0583. Moreover, the “θV-FOOD, food effect on V/F, final NONMEM estimate” value in data set [2] (final PK model, FOOD = 0 fasted, 1 fed) was 0.822. Besides, in data set [2] (setting [7]), the “Inter-individual variability of CL/F” value is given as 23.6%, the “Inter-individual variability of Ka” value is reported as 54.1% and the “Inter-individual variability of V/F” value is given as 24.1%. In addition, the “Ka, first-order absorption rate constant, final NONMEM estimate” value in data set [2] (oral, final PK model) was 0.359 h⁻¹. The “θCL, population apparent clearance (CL/F), final NONMEM estimate” value in data set [2] (oral, final PK model, WT 75 kg, age 25 y) is 4.17 L/h. In the data set on malaria (200 mg daily for three days, then 200 mg weekly, 95% CI 93%-100%), the Protective efficacy is recorded as 100%. In addition, in the data set with malaria (reference regimen, non-immune, primarily Caucasian Australian soldiers), the Malaria breakthroughs result is listed as “no malaria breakthroughs were observed”. In addition, the “Reduction in microscopically confirmed parasitemia” value in data set [3] is recorded as “statistically significant reductions”. For the same molecule, the Half-life entry in data set [1] was “weeks”. Moreover, the “Activity against blood stages of P. falciparum in vitro” value in data set [4] is “active”. For the same molecule, the “Activity against P. berghei in mice in vivo” value in the data set on P. berghei is reported as “active”. Further, in data set [5], the “Cure of chloroquine sensitive and resistant P. vivax infections” value is “cured”. Also, the “Incidence of gastrointestinal adverse events relative to 400 mg once daily or BID for three days (total dose 1200 mg)” value in data set [6] (200 mg once daily for three days (total dose 600 mg)) is “approximately half”. Also, the “Threshold dose considered safe in G6PD-deficient individuals” value in data set [6] (G6PD-deficient individuals) is 300 mg. The “Safety and tolerability of a loading dose of 400 mg once daily for three days” value in data set [6] (G6PD-normal individuals) is reported as “safe in G6PD-normal individuals in several clinical studies but exhibits gastrointestinal intolerability”. In addition, in data set [6] (human, in vivo), the “Tolerability of a 400 mg dose” value was “less well tolerated”.
